Test results: patent publication US20260027102A1, “QUINOLYLNITRONE DERIVATIVES FOR USE IN THE PREVENTION AND/OR TREATMENT OF HEARING LOSS” (CONSEJO SUPERIOR DE INVESTIGACIONES CIENTÍFICAS (CSIC), priority 2022, published 2026)

Experiments:
[1] = tested on: HEI-OC1 mouse auditory cells; test: XTT cell viability assay in HEI-OC1 auditory cells with or without H2O2; type: cell-based
Description: QN23 nitrone was tested in cell cultures of HEI-OC1 mouse auditory cells derived from the Immortomouse™ postnatal organ of Corti following protocols published by the group (Cervantes et al., J Clin Med. 2019 Sep. 14; 8 (9): 1464). HEI-OC1 cells were cultured in DMEM medium supplemented with 10% fetal bovine serum (Gibco), without antibiotics.
Cells were treated with different doses of QN23 (10-50-100-150-200 μM) and with or without 1.2 mM H2O2. Cell viability was studied by XTT assay. Absorbance measurements at 450 and 660 nm were taken with the VERSAmax plate reader at 4 h, 6 h and 23 h after addition of XTT reagents. Viability results were calculated following the formula: Specific absorbance=[Abs450 nm (test)−Abs450 nm (blank)]−Abs660 nm (test). The wells without cells in the respective treatments were used as blanks. Data are represented as mean±SEM, considering the untreated control as 100% viability. Results are from 3 independent experiments and 7 wells/condition/experiment for QN23 nitrone without H2O2 treatment (A-C) or with treatment (D-E). Statistical significance was calculated by Student's test: *p<0.05; **p<0.01; ***p<0.001 in comparison vs. untreated control with QN23. […] After the exposure to H2O2, the cell viability was reduced about 50% due to the cell death associated to the oxidative damage caused by H2O2.
The inventors also compared the effect of QN23 with N-acetylcysteine (NAC). To that end, QN23 nitrone was dissolved in absolute EtOH≥99.5% (#107017; Merck) and tested in vitro in a dose range of 10-200 μM. Cells were treated with increasing doses of H2O2 (1-1.4 mM; Merck).
N-acetylcysteine (NAC) (0.5 mM; Sigma) was used as a reference antioxidant treatment. NAC is a prodrug of L-cysteine, itself a precursor of the biological antioxidant glutathione, among other intracellular actions (Ezerina et al., Cell Chem Biol. 2018 Apr. 19; 25 (4): 447-459.e4). Cells were treated with increasing doses of H2O2 (0.8-1.6 mM).
In both cases, survival curves were performed using the CyQUANT™ XTT cell viability assay (#X12223; Invitrogen) after 2 hours of the administration of QN23 or NAC.
Phenyl N-t-butylnitrone≥98% C6H5CH═N(O)C(CH3)3, PBN) (Sigma-Aldrich, catalogue number B7263) was dissolved as indicated by the manufacturer in Dimethyl sulfoxide (DMSO). DMSO was used as a solvent and had no detectable effects at the dose used (up to 0.1%). A solution 50 uM was prepared to determine the protective effect.
Cell culture, treatments with PBN and XTT assays were performed as already reported for QN23 in sections above.

[2] = tested on: C57BL/6JCrl mice; test: Noise-induced hearing loss in mice, auditory brainstem response (ABR) thresholds; type: in vivo; conditions: 24 h after noise exposure (105 dB, 30 min); QN23 2 mg/kg every 12 h intraperitoneally for 3 days, started 1 h before noise; vs vehicle; click and pure tones 4-32 kHz
Description: The experiments were carried out in C57BL/6JCrl mice, male or female, aged 1.5 months at the beginning of the study.
Noise exposure was performed inside a reverberation chamber. The animals were exposed to 105 dB SL for 30 minutes (Sanz L, Murillo-Cuesta S, Cobo P, Cediel-Algovia R, Contreras J, Rivera T, Varela-Nieto I, Avendaño C. Swept-sine noise-induced damage as a hearing loss model for preclinical assays. Front Aging Neurosci. 2015 Feb. 16; 7:7).
Auditory function was assessed by recording auditory brainstem evoked potentials (ABR) at baseline and after noise exposure (1 day, 14 days and 28 days after exposure), according to protocol described in (Murillo-Cuesta S, Contreras J, Zurita E, Cediel R, Cantero M, Varela-Nieto I, Montoliu L. Melanin precursors prevent premature age-related and noise-induced hearing loss in albino mice. Pigment Cell Melanoma Res. 2010 February; 23 (1): 72-83. doi: 10.1111/j.1755-148X.2009.00646.x. Epub 2009 Oct. 19).
The nitrone QN23 was prepared as described in WO2020/074666. The solution for its administration was always performed at the time of use by dissolving it under vigorous stirring in a mixture of ethanol, polyethylene glycol (PEG400, Sigma) and saline (1:200:60, V/V), until a stock solution of concentration 3.6 mg/ml was obtained. […]

CC(=O)N[C@@H](CS)C(=O)O [NAC, N-acetylcysteine, reference compound]
Protective effect on cell viability at increasing doses of H2O2 ([1]; 0.5 mM NAC, H2O2 0.8-1.6 mM, 2 h): effectively protected from H2O2-induced oxidative damage and cell death at the highest doses tested

COc1ccc2nc(Cl)c(/C=[N+](\[O-])C(C)(C)C)cc2c1 [QN23, (Z)—N-tert-butyl-1-(2-chloro-6-methoxyquinolin-3-yl)methanimine oxide]
Auditory Brainstem Response thresholds after noise exposure [2]: significantly lower thresholds than those receiving vehicle
Cell viability at low H2O2 concentration (early stages of cell deterioration) ([1]; 50 μM QN23, 0.8 mM H2O2, 2 h): enhancement of cell viability even at concentrations as low as 0.8 mM H2O2
Protective effect on cell viability at increasing doses of H2O2 ([1]; 50 μM QN23, H2O2 0.8-1.6 mM, 2 h): cell viability superior at all H2O2 concentrations tested
Toxicity to cells (cell viability without H2O2) ([1]; QN23 10-200 μM for 2 h, without H2O2, XTT read at 4, 6 and 23 h): not toxic to the cells
Cell viability after exposure to H2O2 ([1]; QN23 10-50-100-150-200 μM with 1.2 mM H2O2 for 2 h, vs non-treated control group): significantly increased cell viability at all the doses tested

CC(C)(C)[N+]([O-])=Cc1ccccc1 [PBN, Phenyl N-t-butylnitrone, reference compound]
Protective effect on cell viability at increasing doses of H2O2 ([1]; 50 μM PBN, without or with increasing doses of H2O2, 2 h, XTT read at 4 and 6 h, 1 experiment): no protection was observed when H2O2 doses were higher than 0.5 mM
